This note sets out measurements from PubChem BioAssay AID687005 (Broad Institute, 2013).

Results filed as inconclusive are left out. The source made the active and inactive calls.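 The calls were made as follows: active = Compounds that reduce signal, with fitted half-maximal dose at or under twice the top valid tested dose; inconclusive = Poor fit, or flat curve losing 30 to 70% of signal; inactive = Potency past limit, flat within 30%, or opposite direction.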

The first assay in a line: viability loss in HEK293T cells – cell-based, ATP luminescence, cherry-pick samples, cytotoxicity control, dose response (AID 687005). As to conditions: HEK293T viability, ATP luminescence (CellTiter-Glo), 48 h; at 23.5 µM (top of the series). Background: In ATP-based viability assays light output follows the ATP content of the culture.
`Cc1cc(C(=O)Nc2ccc3c(c2)C(=O)N(C)[C@H]2CC[C@@H](CC(=O)N[C@@H](C)c4ccccc4)O[C@H]2CO3)no1`: the activity change, negative = cytotoxicity was -36.7% (inactive). On the same count and under the same terms, next, `Cc1ccc(S(=O)(=O)N2C[C@@H](O)COC[C@H]3O[C@H](CC(=O)NCc4ccc5c(c4)OCO5)CC[C@@H]32)cc1`: -12.4% (inactive); `COc1cccc(S(=O)(=O)Nc2ccc3c(c2)[C@H]2C[C@@H](CC(=O)NC4CCCCC4)O[C@@H](CO)[C@H]2O3)c1`: -20.2% (inactive); `COc1ccc(CN(C)C[C@@H]2Oc3ccc(NC(=O)C4CC4)cc3C(=O)N([C@@H](C)CO)C[C@H]2C)cc1`: 8.64% (inactive). Consider `C[C@@H]1CN([C@@H](C)CO)C(=O)CCCn2nncc2CO[C@H]1CN(C)C(=O)Oc1cccc2ccccc12`, for which the activity change, negative = cytotoxicity was 17.9% (inactive).

Regarding `COc1ccccc1-c1ccc([C@H]2[C@@H](C#N)N(C(=O)C3CC3)[C@@H]2CO)cc1`, the activity change, negative = cytotoxicity is 27.7% (inactive).

Staying with this assay, now noted: HEK293T viability, ATP luminescence (CellTiter-Glo), 48 h; at 26 µM (top of the series).
Regarding `Cc1noc(C)c1S(=O)(=O)N(C)C[C@@H]1OCCCC[C@@H](C)Oc2ccc(NC(=O)CCCCCC(=O)Nc3ccccc3N)cc2C(=O)N([C@H](C)CO)C[C@@H]1C`, the activity change, negative = cytotoxicity was 1.87% (inactive). The same measure, in the same setting: next, `CN(C[C@H]1N[C@@H](CO)[C@H]1c1ccc(-c2cccc(F)c2)cc1)S(C)(=O)=O`: 61.6% (inactive); `CC(=O)N1[C@@H]2CN(S(=O)(=O)c3ccccc3F)c3ccccc3[C@@H]2[C@@H]1CO`: 5.73% (inactive).

With `Cc1noc(C)c1S(=O)(=O)N(C)C[C@@H]1Oc2c(NC(=O)c3cnccn3)cccc2C(=O)N([C@@H](C)CO)C[C@@H]1C`, the activity change, negative = cytotoxicity is 6.5% (inactive).

`C[C@H](CO)N1C[C@H](C)[C@@H](CN(C)C(=O)c2cccc(F)c2)Oc2cc(-c3cncnc3)ccc2S1(=O)=O`: the activity change, negative = cytotoxicity was -22.6% (inactive). On the same count and under the same terms, next, `CCCC#Cc1ccc2c(c1)O[C@@H](CN(C)C)[C@@H](C)CN([C@@H](C)CO)S2(=O)=O`: 13.6% (inactive); `CCCCNC(=S)N/N=C/c1ccc(C#N)cc1`: -29.9% (inactive); `Cc1c(C(=O)NC(=S)Nc2ccc(N3CCOCC3)cc2)cccc1[N+](=O)[O-]`: -33.3% (inactive). For the compound `COc1ccc(NC(=O)N(C)C[C@@H]2OCCCC[C@H](C)Oc3ccc(NC(=O)Nc4ccc5c(c4)OCO5)cc3C(=O)N([C@H](C)CO)C[C@@H]2C)cc1`, the activity change, negative = cytotoxicity is 4.66% (inactive).

As to `CCCNC(=O)[C@H]1[C@H](CO)[C@H]2Cn3c(cccc3=O)[C@@H]1N2C(=O)Nc1cc(F)ccc1F`, the activity change, negative = cytotoxicity is 42.5% (inactive). Regarding `C[C@@H]1CN([C@H](C)CO)C(=O)c2cc(N(C)C)ccc2O[C@@H]1CN(C)C(=O)Nc1ccc(C(F)(F)F)cc1`, the activity change, negative = cytotoxicity was -77.2% (inactive). On the same count and under the same terms, next, `COCCNC(=O)C[C@@H]1CC[C@@H]2[C@H](COC[C@@H](O)CN2S(=O)(=O)c2ccccc2C)O1`: 31.5% (inactive); `COc1ccc(NC(=S)NCc2ccc(Cl)cc2)c(OC)c1`: 0.916% (inactive); `C[C@@H]1CN([C@@H](C)CO)S(=O)(=O)c2ccc(C#Cc3ccc(F)cc3)cc2O[C@H]1CN(C)C(=O)NC1CCCC1`: 39.2% (inactive). Still for that read-out and setting: next, `COc1ccc(C(=O)NC(=S)Nc2ccccc2N2CCOCC2)cc1[N+](=O)[O-]`: -32.3% (inactive); `COc1cccc(S(=O)(=O)N(C)C[C@@H]2Oc3ncc(-c4cccc(F)c4)cc3C(=O)N([C@H](C)CO)C[C@@H]2C)c1`: -18.4% (inactive); `C[C@H]1CN([C@@H](C)CO)C(=O)Cc2cc(NC(=O)Nc3cccc4ccccc34)ccc2O[C@H]1CN(C)S(=O)(=O)c1cccs1`: -25.9% (inactive). Same read-out and setting: next, `C[C@@H]1CN([C@@H](C)CO)C(=O)c2cc(NC(=O)Nc3cccc4ccccc34)ccc2O[C@@H]1CN(C)C(=O)Nc1ccccc1`: 42.1% (inactive); `COc1ccc(NC(=O)Nc2ccc3c(c2)C(=O)N([C@@H](C)CO)C[C@@H](C)[C@H](CN(C)C(=O)Cc2ccccc2)OCCCC[C@H](C)O3)cc1`: -2.88% (inactive); `C/C=C/c1ccc([C@@H]2[C@@H](CNC(=O)C3CC3)N(C(=O)CC)[C@H]2CO)cc1`: -5.25% (inactive).

Take `CCC(C)c1ccc(NC(=S)N2CCN(c3ccccn3)CC2)cc1` (stereo not drawn): the activity change, negative = cytotoxicity is 13.7% (inactive). On the same count and under the same terms, next, `COc1ccccc1CNC(=O)COc1ccc2c(c1)CCC2`: 28.6% (inactive); `COc1cccc(NC(=O)CN2CCN(S(=O)(=O)c3ccc(C(C)C)cc3)CC2)c1`: 35.1% (inactive); `Cc1ccccc1OCC(=O)NC(C)c1ccccc1` (stereo not drawn): -29.9% (inactive). Same read-out and setting: next, `Cc1ccc(N(C(=O)C2CCC(=O)N2)C2(C(=O)NC3CCCC3)CCCCC2)cc1` (stereo not drawn): -43.5% (inactive). For the compound `Cc1noc(C)c1NC(=O)N(C)C[C@H]1OCCCC[C@@H](C)Oc2ccc(NC(=O)NC(C)C)cc2C(=O)N([C@H](C)CO)C[C@H]1C`, the activity change, negative = cytotoxicity was -10.9% (inactive). Still for that read-out and setting: next, `CC(C)c1ccc(S(=O)(=O)N2CCN(CC(=O)Nc3ccc4c(c3)OCO4)CC2)cc1`: -0.379% (inactive).

Consider `CC=Cc1ccc2n(c1=O)C[C@H]1[C@H](CO)[C@@H](C(=O)N3CCOCC3)N(CC3CC3)[C@@H]21` (mixture of isomers), for which the activity change, negative = cytotoxicity was 2.31% (inactive). In the case of `COc1ccc(C#Cc2cnc3c(c2)C(=O)N([C@@H](C)CO)C[C@H](C)[C@@H](CN(C)C(=O)CC2CC2)O3)cc1`, the activity change, negative = cytotoxicity was -34.7% (inactive).

With `O=C(C[C@H]1C[C@@H]2c3cc(NC(=O)c4cccnc4)ccc3O[C@@H]2[C@@H](CO)O1)NCCc1ccccc1`, the activity change, negative = cytotoxicity was -44.8% (inactive). Still for that read-out and setting: next, `CC(C)NC(=O)Nc1ccc2c(c1)C(=O)N([C@@H](C)CO)C[C@H](C)[C@@H](CN(C)S(=O)(=O)c1cccs1)OCCCC[C@H](C)O2`: -17.5% (inactive). As to `CO[C@H](CN(C)Cc1ccc2c(c1)OCO2)[C@@H](C)CN(C(=O)c1ccccc1)[C@@H](C)CO`, the activity change, negative = cytotoxicity was -12.9% (inactive). For the compound `C[C@H](CO)N1C[C@H](C)[C@@H](CN(C)S(=O)(=O)c2cn(C)cn2)Oc2c(NC(=O)Nc3ccccc3)cccc2C1=O`, the activity change, negative = cytotoxicity was 1.19% (inactive). Still for that read-out and setting: next, `COc1ccccc1C(=O)N1C[C@H]2[C@@H](c3ccccc31)[C@@H](CO)N2C(=O)Cc1ccccc1`: -6.87% (inactive); `CN1C(=O)c2cc(NS(C)(=O)=O)ccc2OC[C@@H]2O[C@@H](CC(=O)O)CC[C@H]21`: 4.2% (inactive).

As for `C[C@@H]1CCCCO[C@@H](CN(C)C(=O)NC2CCCCC2)[C@H](C)CN([C@@H](C)CO)C(=O)c2cc(NS(=O)(=O)c3cn(C)cn3)ccc2O1`, the activity change, negative = cytotoxicity was 36.8% (inactive). Still for that read-out and setting: next, `CCC(=O)N[C@H]1C=C[C@H](CC(=O)NCC2CCCCC2)O[C@@H]1CO`: 35.4% (inactive); `CC1(C(=O)Nc2ccc3ccccc3c2)CCC(=O)N1C1CC1` (stereo not drawn): -28.4% (inactive). The same measure, in the same setting: next, `C[C@H]1CCCCO[C@H](CN(C)C(=O)c2ccncc2)[C@@H](C)CN([C@@H](C)CO)C(=O)c2cc(NC(=O)Cc3ccccc3)ccc2O1`: -3.36% (inactive); `CO[C@@H]1CN(C)C(=O)c2ccc(NC(=O)C3CC3)cc2OC[C@H](C)N(Cc2ccc(F)cc2)C[C@H]1C`: -10.4% (inactive); `CC(C)CC#Cc1cnc2c(c1)C(=O)N([C@@H](C)CO)C[C@H](C)[C@H](CN(C)C(=O)c1ccc3c(c1)OCO3)O2`: 16.5% (inactive).

`COc1ccccc1NC(=O)N[C@@H]1CC[C@H](CCn2cc(-c3ccccc3OC)nn2)O[C@H]1CO`: the activity change, negative = cytotoxicity is -11.8% (inactive). Turning to `CN1C(=O)c2cc(NS(=O)(=O)c3cccc(F)c3)ccc2OC[C@@H]2O[C@@H](CC(=O)O)CC[C@H]21`, the activity change, negative = cytotoxicity was -21.4% (inactive).

Turning to `Cc1ccc(S(=O)(=O)Nc2ccc3c(c2)C(=O)N([C@@H](C)CO)C[C@H](C)[C@H](CN(C)S(=O)(=O)c2ccc(Cl)cc2)OCCCC[C@@H](C)O3)cc1`, the activity change, negative = cytotoxicity was -26.9% (inactive).

`C[C@@H]1CN([C@@H](C)CO)C(=O)c2cccc(NC(=O)c3ccncc3)c2O[C@H]1CN(C)C(=O)Nc1ccccc1`: the activity change, negative = cytotoxicity was 6.14% (inactive). Same read-out and setting: next, `CC(=O)N[C@H]1CC[C@H](CCNC(=O)C2CCC2)O[C@@H]1CO`: 10.8% (inactive); `COc1cccc(NC(=S)NC(=O)Cc2ccc(Cl)cc2)c1`: -6.68% (inactive).

For `COc1cccc(S(=O)(=O)Nc2ccc3c(c2)OC[C@@H](C)NC[C@H](C)[C@@H](OC)CN(C)C3=O)c1`, the activity change, negative = cytotoxicity is -6.17% (inactive). The same measure, in the same setting: next, `CO[C@H]1CN(C)C(=O)c2cc(NS(=O)(=O)CC(F)(F)F)ccc2OC[C@@H](C)N(Cc2cccnc2)C[C@@H]1C`: -36.3% (inactive); `O=C(NCC[C@H]1CC[C@H](NS(=O)(=O)c2ccc(F)cc2)[C@@H](CO)O1)c1ccc2c(c1)OCO2`: -2.6% (inactive). The same measure, in the same setting: next, `C[C@@H]1CN([C@@H](C)CO)C(=O)c2cccc(NS(=O)(=O)c3ccc(F)cc3)c2O[C@H]1CN(C)S(=O)(=O)c1ccc(Cl)cc1`: -22.8% (inactive).

The assay is the same for the next values; noted with them: HEK293T viability, ATP luminescence (CellTiter-Glo), 48 h; at 42 µM (top of the series).
In the case of `Cc1ccc(NC(=O)C2(C)CCCN2CC(C)C)cc1C` (stereo not drawn), the activity change, negative = cytotoxicity was -2.43% (inactive).
